{"source": "ChEMBL document CHEMBL5260833", "about": "“An overview of quinazolines: Pharmacological significance and recent developments” (Eur J Med Chem, 2018)", "key": {"Rattus norvegicus [1]": {"test_system": "Rattus norvegicus", "experiment": "Inhibition of AII-induced hypertension in rat assessed as vasoconstrictor at 3 mg/kg, po measured after 2 hrs", "type": "functional"}, "Rattus norvegicus [2]": {"test_system": "Rattus norvegicus", "experiment": "Inhibition of AII-induced pressor response in normotensive conscious rat administered intravenously", "type": "functional", "details": "route iv"}, "Rattus norvegicus [3]": {"test_system": "Rattus norvegicus", "experiment": "Inhibition of AII-induced pressor response in normotensive conscious rat administered orally", "type": "functional", "details": "route po"}, "CA46": {"test_system": "CA46", "experiment": "Cell cycle arrest in human CA46 cells assessed as reduction in G2/M phase at 10 uM incubated for 24 hrs relative to control", "type": "functional"}, "MCF7 [4]": {"test_system": "MCF7", "experiment": "Anticancer activity against human MCF7 cell assessed as cell growth inhibition measured after 48 hrs by SRB assay", "type": "functional, cell-based", "details": "MCF7, 48 h"}, "MCF7 [5]": {"test_system": "MCF7", "experiment": "Cell cycle arrest in human MCF7 cells assessed as reduction in G2/M phase at 10 uM G2/M phase incubated for 24 hrs relative to control", "type": "functional"}, "Tubulin": {"target": "Tubulin", "experiment": "Inhibition of tubulin polymerization (unknown origin) incubated for 15 mins followed by GTP addition and measured for 20 mins by spectrophotometry", "type": "protein-complex assay, Homo sapiens"}, "K562": {"test_system": "K562", "experiment": "Anticancer activity against human K562 cells assessed as cell growth inhibition", "type": "functional, cell-based"}}}
{"smiles": "CCCCc1nc2ccc([C@H]3OC[C@H]4[C@@H]3ON3[C@@H]4CCC3(C)C)cc2c(=O)n1Cc1ccc(-c2ccccc2-c2nn[nH]n2)cc1", "values": [{"measurement": "Activity", "setting": "Rattus norvegicus [1]", "value": 70, "unit": "mmHg"}]}
{"smiles": "CCCCc1nc2ccc(C(C)C)cc2c(=O)n1Cc1ccc(-c2ccccc2S(=O)(=O)NC(=O)C2CC2)cc1", "values": [{"measurement": "ED50", "setting": "Rattus norvegicus [2]", "value": 0.25, "unit": "mg/kg"}, {"measurement": "ED50", "setting": "Rattus norvegicus [3]", "value": 0.68, "unit": "mg/kg"}]}
{"smiles": "O=c1c2cc(Cl)ccc2nc(/C=C/c2ccccc2)n1-c1ncccn1", "values": [{"measurement": "inhibition at 10 µM", "setting": "CA46", "value": 66, "unit": "%"}, {"measurement": "IC50", "setting": "MCF7 [4]", "value": 310, "unit": "nM"}, {"measurement": "inhibition at 10 µM", "setting": "MCF7 [5]", "value": 20, "unit": "%"}, {"measurement": "IC50", "setting": "Tubulin", "value": 5980, "unit": "nM"}]}
{"smiles": "CCN(CC)C(=S)SCc1ccc2nc(C)nc(O)c2c1", "values": [{"measurement": "IC50", "setting": "K562", "value": 500, "unit": "nM"}]}
